Data set [1] addresses Free fatty acid receptor 1 (Homo sapiens) (UniProt O14842). The experiment in a line: Agonist activity at human GPR40 expressed in HEK293 cells assessed as calcium flux response relative to linoleic acid. It is filed as functional, cell-based. Also noted: concentration or dose not given beside the values. A general note: Calcium flux is commonly read through the fluorescence of an indicator in the cells.

Data set [2] shares this target. The experiment in a line: Agonist activity at human GPR40 expressed in HEK293 cells assessed as effect on calcium flux. Type of data set: functional, cell-based.
For data set [3], the target named is Free fatty acid receptor 1 (Mus musculus) (UniProt Q76JU9). Kind of data set: Agonist activity at GPR40 in mouse MIN6 cells assessed as stimulation of 25 mM glucose-mediated insulin secretion at 30 uM. Type of data set: functional, cell-based.
Data set [4] has as its target Free fatty acid receptor 1 (Mus musculus, UniProt Q76JU9). The experiment in a line: Agonist activity at GPR40 in mouse MIN6 cells assessed as stimulation of 25 mM glucose-mediated insulin secretion. Type of data set: functional, cell-based.
In data set [5] the target is Free fatty acid receptor 1 (Mus musculus) (UniProt Q76JU9). The experiment in a line: Agonist activity at GPR40 in mouse MIN6 cells assessed as stimulation of 5 mM glucose-mediated insulin secretion at 30 uM. Type of data set: functional, cell-based.
The nature of data set [6]: Tmax in rat at 2 mg/kg, iv. Type of data set: ADME, organism-based. Details: dose 2 mg/kg, route intravenous. The conditions noted are these: in vivo.
A short description of data set [7]: Clearance in rat at 2 mg/kg, iv. It is filed as ADME, organism-based. Details: dose 2 mg/kg, route intravenous. The conditions noted are these: in vivo.
The next data set concerns the target Cytochrome P450 2C19 (Homo sapiens, UniProt P33261). The experiment in a line: Inhibition of human CYP2C19. It is filed as ADME.
The nature of data set [8]: Tmax in rat at 10 mg/kg, po. It is filed as ADME, organism-based. Also noted: dose 10 mg/kg, route oral. The conditions noted are these: in vivo.
A short description of data set [9]: AUC in rat at 10 mg/kg, po. Details: dose 10 mg/kg, route oral. It is filed as ADME, organism-based. The conditions noted are these: plasma.
The next data set deals with T1, Cytochrome P450 1A2 (Homo sapiens, UniProt P05177).
T1 sequence (P05177 whole entry): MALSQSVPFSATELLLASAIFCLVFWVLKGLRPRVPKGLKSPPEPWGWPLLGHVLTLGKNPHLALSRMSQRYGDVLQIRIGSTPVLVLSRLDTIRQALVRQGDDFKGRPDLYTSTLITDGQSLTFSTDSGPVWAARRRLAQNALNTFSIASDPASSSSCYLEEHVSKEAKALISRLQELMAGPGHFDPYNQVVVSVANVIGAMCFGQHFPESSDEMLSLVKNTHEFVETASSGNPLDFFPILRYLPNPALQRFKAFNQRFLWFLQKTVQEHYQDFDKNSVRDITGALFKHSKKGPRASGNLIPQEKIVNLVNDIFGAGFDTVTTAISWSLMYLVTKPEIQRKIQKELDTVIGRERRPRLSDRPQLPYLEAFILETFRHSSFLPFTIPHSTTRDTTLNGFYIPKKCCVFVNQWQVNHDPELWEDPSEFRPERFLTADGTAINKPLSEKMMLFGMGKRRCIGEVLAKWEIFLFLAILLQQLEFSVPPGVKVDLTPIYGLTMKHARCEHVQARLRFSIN
The experiment in a line: Inhibition of human CYP1A2. Type of data set: ADME.

In a further data set the target is Cytochrome P450 2D6 (Homo sapiens, UniProt P10635). The experiment in a line: Inhibition of human CYP2D6. Type of data set: ADME.
The nature of data set [10]: Half life in rat at 10 mg/kg, po. Type of data set: ADME, organism-based. The conditions noted are these: in vivo. Also noted: dose 10 mg/kg, route oral.
A short description of data set [11]: Half life in rat at 2 mg/kg, iv. Type of data set: ADME, organism-based. Details: dose 2 mg/kg, route intravenous. The conditions noted are these: in vivo.
Data set [12] in a line: Cmax in rat at 2 mg/kg, iv. Type of data set: ADME, organism-based. Also noted: dose 2 mg/kg, route intravenous. The conditions noted are these: in vivo.
Another data set deals with Cytochrome P450 2C9 (Homo sapiens, UniProt P11712). Kind of data set: Inhibition of human CYP2C9. It is filed as ADME.
Data set [13] can be described thus: AUC in rat at 2 mg/kg, iv. It is filed as ADME, organism-based. Also noted: dose 2 mg/kg, route intravenous. The conditions noted are these: plasma.
Data set [14] is described as follows: Cmax in rat at 10 mg/kg, po. Type of data set: ADME, organism-based. The conditions noted are these: in vivo. Also noted: dose 10 mg/kg, route oral.
Data set [15] can be described thus: Oral bioavailability in rat at 10 mg/kg, po. It is filed as ADME, organism-based. The conditions noted are these: in vivo.
A further data set addresses Cytochrome P450 3A4 (Homo sapiens, UniProt P08684). The experiment in a line: Inhibition of human CYP3A4. Type of data set: ADME.

The values that follow come from ChEMBL document CHEMBL1143689, “Synthesis and biological evaluation of 3-aryl-3-(4-phenoxy)-propionic acid as a novel series of G protein-coupled receptor 40 agonists” (J Med Chem, 2007).

In general, EC50 refers to the concentration that produces a half-maximal response. What is called Tmax is the time from dosing to the highest level. Usually clearance stands for the volume of plasma or blood freed of the substance per unit of time. The IC50 is the concentration that gives 50% inhibition. As a reminder, the AUC is concentration integrated over time. As usually defined, the half-life is how long it takes for the measured level to halve. One may read the Cmax as the highest concentration seen after dosing. By bioavailability is commonly meant the share of a dose that reaches the circulation, judged against a reference dose that is usually intravenous.

Sequence of Free fatty acid receptor 1 (Homo sapiens) (O14842 whole entry): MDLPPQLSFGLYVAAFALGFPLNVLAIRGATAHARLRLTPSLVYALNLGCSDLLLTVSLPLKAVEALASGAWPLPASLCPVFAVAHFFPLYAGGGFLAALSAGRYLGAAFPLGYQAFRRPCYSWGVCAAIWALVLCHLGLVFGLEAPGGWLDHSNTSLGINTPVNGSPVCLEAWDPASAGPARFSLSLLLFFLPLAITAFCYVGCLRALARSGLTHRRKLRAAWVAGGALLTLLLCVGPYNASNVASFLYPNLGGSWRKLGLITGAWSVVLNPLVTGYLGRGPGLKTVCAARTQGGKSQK
Sequence of Free fatty acid receptor 1 (Mus musculus) (Q76JU9 whole entry): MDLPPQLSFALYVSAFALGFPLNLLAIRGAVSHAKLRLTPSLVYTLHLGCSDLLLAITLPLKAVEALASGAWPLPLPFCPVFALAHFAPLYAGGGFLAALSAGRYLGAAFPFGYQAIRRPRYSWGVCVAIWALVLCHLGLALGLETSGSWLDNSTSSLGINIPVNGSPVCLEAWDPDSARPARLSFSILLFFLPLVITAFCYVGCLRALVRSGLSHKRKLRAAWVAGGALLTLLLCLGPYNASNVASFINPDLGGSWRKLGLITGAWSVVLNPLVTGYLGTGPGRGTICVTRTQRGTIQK
Sequence of Cytochrome P450 3A4 (P08684 whole entry): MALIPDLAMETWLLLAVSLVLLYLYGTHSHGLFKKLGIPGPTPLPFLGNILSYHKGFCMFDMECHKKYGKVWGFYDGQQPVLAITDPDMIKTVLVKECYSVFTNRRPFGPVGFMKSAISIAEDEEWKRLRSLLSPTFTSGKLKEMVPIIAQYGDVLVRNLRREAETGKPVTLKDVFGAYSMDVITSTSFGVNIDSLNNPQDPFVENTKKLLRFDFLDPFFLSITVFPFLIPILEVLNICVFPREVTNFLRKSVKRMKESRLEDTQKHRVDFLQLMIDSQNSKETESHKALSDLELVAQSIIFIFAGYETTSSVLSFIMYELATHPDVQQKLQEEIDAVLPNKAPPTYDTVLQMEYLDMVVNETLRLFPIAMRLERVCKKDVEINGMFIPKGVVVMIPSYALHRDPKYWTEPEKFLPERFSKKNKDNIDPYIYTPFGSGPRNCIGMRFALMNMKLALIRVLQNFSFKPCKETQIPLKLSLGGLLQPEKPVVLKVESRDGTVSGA
Sequence of Cytochrome P450 2C19 (P33261 whole entry): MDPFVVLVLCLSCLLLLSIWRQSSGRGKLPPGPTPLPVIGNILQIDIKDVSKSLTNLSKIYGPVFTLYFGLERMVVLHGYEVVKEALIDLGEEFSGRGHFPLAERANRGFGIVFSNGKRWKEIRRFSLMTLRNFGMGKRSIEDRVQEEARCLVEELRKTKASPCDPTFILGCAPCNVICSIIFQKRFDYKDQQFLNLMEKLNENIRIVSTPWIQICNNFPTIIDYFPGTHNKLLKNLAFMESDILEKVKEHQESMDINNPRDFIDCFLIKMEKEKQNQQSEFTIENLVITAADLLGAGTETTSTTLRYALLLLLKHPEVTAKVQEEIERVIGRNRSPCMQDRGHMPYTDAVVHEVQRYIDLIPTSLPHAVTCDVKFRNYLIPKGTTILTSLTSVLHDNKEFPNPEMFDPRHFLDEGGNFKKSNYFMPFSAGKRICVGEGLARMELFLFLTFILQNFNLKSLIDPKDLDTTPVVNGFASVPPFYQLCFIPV
Sequence of Cytochrome P450 2C9 (P11712 whole entry): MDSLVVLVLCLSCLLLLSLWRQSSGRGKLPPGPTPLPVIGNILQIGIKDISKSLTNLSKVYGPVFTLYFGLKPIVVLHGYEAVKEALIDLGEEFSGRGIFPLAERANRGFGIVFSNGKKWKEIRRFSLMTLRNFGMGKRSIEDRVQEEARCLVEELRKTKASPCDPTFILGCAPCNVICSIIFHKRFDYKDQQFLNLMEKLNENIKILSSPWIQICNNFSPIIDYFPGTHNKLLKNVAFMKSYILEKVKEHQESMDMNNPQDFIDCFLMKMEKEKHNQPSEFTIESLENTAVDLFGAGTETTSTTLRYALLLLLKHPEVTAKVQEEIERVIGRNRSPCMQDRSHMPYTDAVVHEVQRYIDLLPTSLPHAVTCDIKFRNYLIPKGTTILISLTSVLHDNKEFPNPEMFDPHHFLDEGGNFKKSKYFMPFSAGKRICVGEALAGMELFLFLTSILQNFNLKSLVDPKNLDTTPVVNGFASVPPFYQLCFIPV
Sequence of Free fatty acid receptor 1 (Q76JU9 whole entry): as the sequence (Q76JU9 whole entry) above
Sequence of Cytochrome P450 2D6 (P10635 whole entry): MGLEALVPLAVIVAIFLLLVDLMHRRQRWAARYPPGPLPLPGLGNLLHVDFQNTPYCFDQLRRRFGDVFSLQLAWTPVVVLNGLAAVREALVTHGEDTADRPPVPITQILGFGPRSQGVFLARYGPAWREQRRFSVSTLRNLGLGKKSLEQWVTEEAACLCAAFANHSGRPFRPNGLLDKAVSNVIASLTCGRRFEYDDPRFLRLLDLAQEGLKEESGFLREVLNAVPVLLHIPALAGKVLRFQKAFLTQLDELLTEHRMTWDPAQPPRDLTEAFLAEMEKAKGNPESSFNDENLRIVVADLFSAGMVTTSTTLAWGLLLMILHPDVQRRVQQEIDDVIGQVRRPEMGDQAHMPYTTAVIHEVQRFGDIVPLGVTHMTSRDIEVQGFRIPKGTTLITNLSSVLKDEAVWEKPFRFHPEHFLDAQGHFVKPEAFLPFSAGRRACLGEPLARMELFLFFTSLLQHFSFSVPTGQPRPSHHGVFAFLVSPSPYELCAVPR

As for `CCCCCOc1cccc(C(CC(=O)O)c2ccccc2)c1` (stereo not drawn), in data set [1], the Activity is 6%. In data set [2], the ED50 was > 10000 nM.
For `CCCCOc1ccc(C(CC(=O)O)c2ccc(C(F)(F)F)cc2)cc1` (stereo not drawn), in that order: 3% and > 10000 nM.
For `CCCCOc1ccc(C(CC(=O)O)c2cccc(C(F)(F)F)c2)cc1` (stereo not drawn), in that order: 75% and 2840 nM.
For `CCCCOc1ccc(C(CC(=O)O)c2cccc(F)c2)cc1` (stereo not drawn), in that order: 81% and 1440 nM.
For the compound `O=C(O)CC(c1ccccc1)c1ccc(OCCCC(F)(F)F)cc1` (stereo not drawn), in [1], the Activity turned out to be 72%. Also, the ED50 in data set [2] amounted to 3160 nM.
`CCCOc1ccc(C(CC(=O)O)c2ccccc2)cc1` (stereo not drawn): the Activity in data set [1] was 68%. For the same compound, in data set [2], the ED50 is 4800 nM.
Take `CCCCOc1ccc(C(CC(=O)O)c2ccccc2)cc1` (stereo not drawn): the Activity in data set [1] turned out to be 72%. Also, the ED50 in data set [2] is 1200 nM.
The matching figures for `CC[C@H](C)COc1ccc(C(CC(=O)O)c2ccccc2)cc1` (stereo in doubt; 22(A,S)): 2% and > 10000 nM.
For `CCCCOc1ccc(C(CC(=O)O)c2ccccc2O)cc1` (stereo not drawn), in that order: 66% and 4800 nM.
For `CC(C)CCOc1ccc(C(CC(=O)O)c2ccccc2)cc1` (stereo not drawn), in that order: 77% and 1860 nM.
`CC[C@@H](C)COc1ccc(C(CC(=O)O)c2ccccc2)cc1` (stereo in doubt; 22(A,R)): in [1], the Activity came to 3%. Also, the ED50 in data set [2] was > 10000 nM.
The matching figures for `C/C=C/COc1ccc(C(CC(=O)O)c2ccccc2)cc1` (stereo not drawn): 75% and 2710 nM.
For the compound `CCC(CC)COc1ccc(C(CC(=O)O)c2ccccc2)cc1` (stereo not drawn), the Activity worked out at 155% in [3] and 96% in data set [1]. In addition, the concentration giving a half-maximal response (EC50) in [4] amounted to 2200 nM. For the same compound, the ED50 in [2] was determined as 640 nM.
In the case of `COCCCOc1ccc(C(CC(=O)O)c2ccccc2)cc1` (stereo not drawn), the Activity in data set [1] was found to be 43%. In addition, the ED50 in data set [2] is 7580 nM.
For `CCCCOc1ccc(C(CCCC(=O)O)c2ccccc2)cc1` (stereo not drawn), in that order: 3% and > 10000 nM.
Take `CCCCC/C=C\C/C=C\CCCCCCCC(=O)O`: the Activity in data set [3] was found to be 172%; in data set [5], 141%.
Turning to `CCCCOc1ccc(C(CC(=O)O)c2cccs2)cc1` (stereo not drawn), the Activity came out at 171% in data set [3] and 79% in data set [1]. The ED50 in [2] was 1290 nM.
Take `CCC(C)COc1ccc(C(CC(=O)O)c2ccccc2)cc1` (stereo not drawn): the Tmax in data set [6] came to 4.8 min; in data set [8], 0.5 h. Moreover, in [7], the clearance was determined as 13.8 mL/min/kg. Also, the IC50 against Cytochrome P450 2C19, at Cytochrome P450 1A2, on Cytochrome P450 2D6, at Cytochrome P450 2C9 and on Cytochrome P450 3A4 was > 22000 nM throughout. The AUC in data set [9] was determined as 10700 ng·h/mL; in [13] it was 2480 ng·h/mL. In addition, the half-life is 6.33 h in data set [10] and 4.78 h in data set [11]. Further, the highest concentration (Cmax) in [12] is 5780 ng/mL; in data set [14], 4760 ng/mL. The Activity in [1] came to 98%. Moreover, the ED50 in data set [2] worked out at 300 nM. The same compound came in with a bioavailability in data set [15] of 87%.
In the case of `CCCCCCCOc1ccc(C(CC(=O)O)c2ccccc2)cc1` (stereo not drawn), in data set [1], the Activity was determined as 70%. In addition, the ED50 in data set [2] amounted to 4260 nM.
For `CC[C@H](C)COc1ccc(C(CC(=O)O)c2ccccc2)cc1` (stereo in doubt; 22(B,S)), in that order: 94% and 560 nM.
`C=C(C)CCOc1ccc(C(CC(=O)O)c2ccccc2)cc1` (stereo not drawn): in [1], the Activity was found to be 81%. Moreover, in [2], the ED50 was 2710 nM.
The matching figures for `CC[C@@H](C)COc1ccc(C(CC(=O)O)c2ccccc2)cc1` (stereo in doubt; 22(B,R)): 98% and 710 nM.
Turning to `CCCCCCOc1ccc(C(CC(=O)O)c2ccccc2)cc1` (stereo not drawn), the figures for the Activity in data set [3] and in [1] were 137% and 68%, respectively. Besides, the ED50 in data set [2] worked out at 2880 nM.
In the case of `CCCCCOc1ccc(C(CC(=O)O)c2ccccc2)cc1` (stereo not drawn), the Activity was 122% in data set [3] and 60% in data set [1]. In [2], the ED50 was 2970 nM.
